Counter-ions that a name gives are not always drawn.
Assays:
[1] = biological target: T1, recombinant human 5-HT6 receptor (Homo sapiens, UniProt P50406); assay: Radioligand binding, [3H]LSD competition at 5-HT6 receptor; conditions: membranes of HEK293 cells expressing recombinant human 5-HT6 receptor, 37° C., read-out: pKi for the 5-HT6 receptor (converted)
T1 construct: expressed in transfected cells
Protocol: (§1) The binding activity of compounds of this invention in vitro was determined as follows. Duplicate determinations of 5-HT6 ligand affinity were made by competing for binding of [^3H]LSD in cell membranes derived from HEK293 cells stably expressing recombinant human 5-HT6 receptor. Duplicate determinations of 5-HT2A ligand affinity were made by competing for binding of [^3H]Ketanserin (3-(2-(4-(4-fluorobenzoyl)piperidinol)ethyl)-2,4(1H,3H)-quinazolinedione) in cell membranes derived from CHO-K1 cells stably expressing recombinant human 5-HT2A receptor. Membranes were prepared from HEK 293 cell lines by the method described by Monsma et al., Molecular Pharmacology, Vol. 43 pp. 320-327 (1993), and from CHO-K1 cell lines as described by Bonhaus et al., Br J Pharmacol. June; 115(4):622-8 (1995).
(§2) For estimation of affinity at the 5-HT6 receptor, all determinations were made in assay buffer containing 50 mM Tris-HCl, 10 mM MgSO4, 0.5 mM EDTA, 1 mM ascorbic acid, pH 7.4 at 37° C., in a 250 microliter reaction volume. […]
(§3) Assay tubes containing [^3H] […] LSD or [^3H]Ketanserin were determined as radioactive counts per minute using Packard TopCount.
(§4) Displacement of [^3H]LSD or [^3H]Ketanserin from the binding sites was quantified by fitting concentration-binding data to a 4-parameter logistic equation: […]

[2] = biological target: T2, recombinant human 5-HT2A receptor (Homo sapiens, UniProt P28223); assay: Radioligand binding, [3H]Ketanserin competition at 5-HT2A receptor; conditions: membranes of CHO-K1 cells expressing recombinant human 5-HT2A receptor, 32° C., read-out: pKi for the 5-HT2A receptor (converted)
T2 construct: expressed in transfected cells
Protocol: as §1, §2, §3, §4

T2 sequence (P28223 whole entry): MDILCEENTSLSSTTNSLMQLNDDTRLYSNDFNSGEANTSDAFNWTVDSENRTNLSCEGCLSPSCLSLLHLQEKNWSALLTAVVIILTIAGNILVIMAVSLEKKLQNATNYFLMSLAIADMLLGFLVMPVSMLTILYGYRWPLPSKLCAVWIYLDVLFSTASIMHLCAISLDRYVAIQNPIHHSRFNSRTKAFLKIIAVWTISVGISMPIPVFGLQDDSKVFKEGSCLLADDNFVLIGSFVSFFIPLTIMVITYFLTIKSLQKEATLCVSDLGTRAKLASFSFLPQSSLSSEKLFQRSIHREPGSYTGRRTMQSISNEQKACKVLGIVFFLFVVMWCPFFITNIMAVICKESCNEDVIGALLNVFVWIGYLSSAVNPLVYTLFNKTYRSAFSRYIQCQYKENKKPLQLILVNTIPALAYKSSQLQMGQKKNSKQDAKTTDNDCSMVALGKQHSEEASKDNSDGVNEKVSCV
T1 sequence (P50406 whole entry): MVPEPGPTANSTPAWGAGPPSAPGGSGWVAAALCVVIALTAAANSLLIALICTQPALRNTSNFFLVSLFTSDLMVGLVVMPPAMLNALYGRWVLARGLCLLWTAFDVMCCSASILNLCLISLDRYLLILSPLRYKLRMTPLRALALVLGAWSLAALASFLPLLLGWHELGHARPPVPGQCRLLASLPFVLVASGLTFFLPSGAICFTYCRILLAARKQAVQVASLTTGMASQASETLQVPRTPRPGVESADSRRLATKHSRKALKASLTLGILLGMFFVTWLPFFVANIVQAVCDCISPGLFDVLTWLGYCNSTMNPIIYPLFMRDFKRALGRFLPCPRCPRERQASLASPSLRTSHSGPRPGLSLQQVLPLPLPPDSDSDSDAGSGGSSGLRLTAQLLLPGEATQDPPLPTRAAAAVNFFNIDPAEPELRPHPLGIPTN

Row | melting point [°C] | Ki [1] [µM] | Ki [2] [µM] | SMILES
1 | 129.5 to 131.5 |  |  | C[C@H](O)C(=O)NC[C@H]1CCc2ccc(S(=O)(=O)c3ccccc3)cc2O1 (stereo in doubt) [Compound 30, (R)-N-(7-Benzenesulfonyl-chroman-2-ylmethyl)-2-hydroxy-propionamide]
2 | 259 to 261 |  |  | CNC[C@H]1CCc2ccc(S(=O)(=O)c3cccc(F)c3)cc2O1 [Compound 35, (R)-[7-(3-Fluoro-benzenesulfonyl)-chroman-2-ylmethyl]-methyl-amine]
3 |  | ~0.0001 | ~0.0562 | CNC[C@@H]1CCc2ccc(S(=O)(=O)c3ccccc3)cc2O1 [Compound 7, (S)-(7-Benzenesulfonyl-chroman-2-ylmethyl)-methyl-amine]
4 | 157.8 to 189.6 |  |  | CNCC1CC(=O)c2ccc(S(=O)(=O)c3ccccc3)cc2O1 (centres unmarked) (as salt: TFA) [Compound 1, 7-Benzenesulfonyl-2-methylaminomethyl-chroman-4-one]
5 | 196.2 to 198.2 |  |  | CNCC1CCc2ccc(S(=O)(=O)c3ccccc3)cc2O1 (centres unmarked) (as salt: TFA) [Compound 3, (7-Benzenesulfonyl-chroman-2-ylmethyl)-methyl-amine]
6 | 163.9 to 165.3 |  |  | CNCC1CC(C)(O)c2ccc(S(=O)(=O)c3ccccc3)cc2O1 (centres unmarked) (as salt: trifluoroacetate) [Compound 4, 7-Benzenesulfonyl-4-methyl-2-methylaminomethyl-chroman-4-ol]
7 | 257.1 to 258.9 |  |  | NC[C@H]1CCc2ccc(S(=O)(=O)c3cccc(F)c3)cc2O1 [Compound 46, (R)-C-[7-(3-Fluoro-benzenesulfonyl)-chroman-2-yl]-methylamine]

Reference: patent publication US7754759B2, “Arylsulfonyl chromans as 5-HT6 inhibitors” (Roche Palo Alto LLC, priority 2005, dated 2010)
